Experiment [1] has as its target ternary complex between BCL-XL and CRBN-DDB1 (Homo sapiens, UniProt Q07817+Q96SW2). The experiment can be described thus: Compound-induced formation of ternary complex between BCL-XL and CRBN-DDB1 by AlphaLISA. In kind it is biochemical. Details: key: the number of + indicates the intensity of AlphaLISA peak signal; ++: the number of + indicates the intensity of AlphaLISA peak signal; +++: the number of + indicates the intensity of AlphaLISA peak signal; ++++: the number of + indicates the intensity of AlphaLISA peak signal; +++++: the number of + indicates the intensity of AlphaLISA peak signal. To be noted: peak signal; 60 nM Strep-BCL-XL and 60 nM His-CRBN/DDB1. On the procedure: Experimental Example 4, Detection of Compound-Induced Formation of Ternary Complex Between BCL-XL and CRBN-DDB1 by AlphaLISA Method
Na2HPO4(Sigma), NaH2PO4(Sigma), sodium chloride (Sigma), Tween-20 (Sigma), AlphaLISA®Nikel Chelate Acceptor beads (PerkinElmer), Strep-Tactin® Alpha Donor beads (PerkinElmer), Assay plate (Corning), Strep-BCl-XL (HitGen), His-CRBN/DDB1 (HitGen).
DMSO was used to dissolve the dry powder of the test compound to obtain a 10.00 mM solution. The instrument ECHO was used to perform gradient dilution of the compound, which was then added to a 384-well reaction plate (Corning, Cat #3824), so that the final concentration of DMSO in the entire reaction system (10.0 μL) was less than 1%, and the same amount of DMSO was added and used as a control.
Strep-BCl-XL and His-CRBN/DDB1 proteins were dissolved in buffer (10 mM NaH2PO4, 40 mM Na2HPO4, 150 mM sodium chloride, 0.03% Tween20, pH=7.4) to obtain a protein mixture of 60 nM Strep-BCL-XL and 60 nM His-CRBN/DDB1, the protein mixture (5ul/well) was added to the 384-well plate in which the compound had been added, and incubated at room temperature for 30 minutes, then 5 μl of a detection mixture with 50 μg/ml AlphaLISA®Nikel Chelate Acceptor beads and 50 μg/ml Strep-Tactin® Alpha Donor beads was added, and incubated at room temperature for 2 hours; and then a microplate reader was used to detect AlphaLISA signal.
Fifth order polynomial or Sixth order polynomial in Polynomial of Graphpad 6.0 was used for data fitting.
Background: Bead proximity is the source of the signal in Alpha formats.

For the next experiment, the system named is MOLT-4 cells. The experiment can be described thus: Inhibitory activity on MOLT4 cell proliferation by Cell Titer-Glo method. To be noted: Homo sapiens, 72 hours incubation, read-out: IC50 concentration for inhibiting MOLT-4 cells. In kind it is cell-based. On the procedure: Experimental Example 5, Evaluation Experiment of Inhibitory Activity of Compound on MOLT4 Cell Proliferation by Cell Titer-Glo Method
RPMI medium modified (Hyclone), FBS (Corning), Dimethyl Sulfoxide, P/S, CellTiter-Gbo Luminescent Cell Viability Assay (Promega), MOLT-4 cell (ATCC).
MOLT-4 cells were cultured in monolayer in vitro in an incubator containing 5% CO2 air at 37° C. The culture medium was RPMI 1640 with 10% FBS and 1% P/S. 15 μL of MOLT4 cells, containing 5×10^4 cells per ml, was inoculated to a 384-well plate (Corning, 3707), 750 cells/well, and incubated at 37° C. and 5% CO2 for 30 minutes. Then the compound that had been diluted in advance was added, with a total of 9 concentration points, and 2 parallel repetitions for each concentration point. The cell growing group without adding the compound was used as a negative control (maximum signal control), and the culture medium group was used as a blank control (minimum signal control). At the same time, it was ensured that the final DMSO content in each reaction well was 0.1%. The compound and the cells were incubated in a cell culture incubator at 37° C., 5% CO2 for 3 days (72 hours).
The 384-well plate was taken out from the cell culture incubator and allowed to stand at room temperature, equilibrated for 20 to 30 minutes, and then 25 μl of Cell Titer-Glo detection reagent was added to each reaction well, lysed on a shaker for 2 minutes, incubated for 10 minutes, and BMG PHERAStar (Luminescence) was used for reading.
The inhibition rate was calculated based on the luminescence signals: the average value of the negative control (maximum signal control) and the blank control (minimum signal control) was first calculated, then the inhibition rates of the compound at different concentrations for the cells were calculated as follows:
The IC50 of the compound to inhibit cell activity was calculated by fitting with GraphPad Prism 6 using log(inhibitor) vs. response−Variable slope mode. The fitting equation was: Y=Bottom+(Top−Bottom)/(1+10^((LogIC50−X)*HillSlope)), wherein Y represented the inhibition rate and X represented the known compound concentration after Log.
Background: Cellular ATP, detected with luciferase, serves as a proxy for viable cell number.

Some results are limits rather than exact numbers.

ternary complex between BCL-XL and CRBN-DDB1, sequence (Q07817 whole entry): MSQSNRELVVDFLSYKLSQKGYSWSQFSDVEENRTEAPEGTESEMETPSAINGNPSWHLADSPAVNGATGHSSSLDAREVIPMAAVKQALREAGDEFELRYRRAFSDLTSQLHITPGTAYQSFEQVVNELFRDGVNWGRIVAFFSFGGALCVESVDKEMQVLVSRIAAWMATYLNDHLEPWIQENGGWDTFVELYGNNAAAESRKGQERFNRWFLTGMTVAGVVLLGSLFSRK
ternary complex between BCL-XL and CRBN-DDB1, sequence (Q96SW2 whole entry): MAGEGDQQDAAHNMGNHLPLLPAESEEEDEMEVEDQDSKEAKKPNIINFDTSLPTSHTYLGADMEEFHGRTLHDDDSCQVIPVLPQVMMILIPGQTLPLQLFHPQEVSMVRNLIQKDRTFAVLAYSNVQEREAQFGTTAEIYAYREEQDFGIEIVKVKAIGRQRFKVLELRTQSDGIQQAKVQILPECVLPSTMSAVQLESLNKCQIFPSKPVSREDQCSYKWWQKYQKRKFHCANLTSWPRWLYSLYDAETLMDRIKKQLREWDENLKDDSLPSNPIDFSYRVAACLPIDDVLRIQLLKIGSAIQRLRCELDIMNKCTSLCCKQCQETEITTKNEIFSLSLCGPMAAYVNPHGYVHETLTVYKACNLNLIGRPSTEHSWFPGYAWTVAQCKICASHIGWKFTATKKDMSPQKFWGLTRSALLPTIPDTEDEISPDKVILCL
ternary complex between BCL-XL and CRBN-DDB1, sequence (Q16531 whole entry partner): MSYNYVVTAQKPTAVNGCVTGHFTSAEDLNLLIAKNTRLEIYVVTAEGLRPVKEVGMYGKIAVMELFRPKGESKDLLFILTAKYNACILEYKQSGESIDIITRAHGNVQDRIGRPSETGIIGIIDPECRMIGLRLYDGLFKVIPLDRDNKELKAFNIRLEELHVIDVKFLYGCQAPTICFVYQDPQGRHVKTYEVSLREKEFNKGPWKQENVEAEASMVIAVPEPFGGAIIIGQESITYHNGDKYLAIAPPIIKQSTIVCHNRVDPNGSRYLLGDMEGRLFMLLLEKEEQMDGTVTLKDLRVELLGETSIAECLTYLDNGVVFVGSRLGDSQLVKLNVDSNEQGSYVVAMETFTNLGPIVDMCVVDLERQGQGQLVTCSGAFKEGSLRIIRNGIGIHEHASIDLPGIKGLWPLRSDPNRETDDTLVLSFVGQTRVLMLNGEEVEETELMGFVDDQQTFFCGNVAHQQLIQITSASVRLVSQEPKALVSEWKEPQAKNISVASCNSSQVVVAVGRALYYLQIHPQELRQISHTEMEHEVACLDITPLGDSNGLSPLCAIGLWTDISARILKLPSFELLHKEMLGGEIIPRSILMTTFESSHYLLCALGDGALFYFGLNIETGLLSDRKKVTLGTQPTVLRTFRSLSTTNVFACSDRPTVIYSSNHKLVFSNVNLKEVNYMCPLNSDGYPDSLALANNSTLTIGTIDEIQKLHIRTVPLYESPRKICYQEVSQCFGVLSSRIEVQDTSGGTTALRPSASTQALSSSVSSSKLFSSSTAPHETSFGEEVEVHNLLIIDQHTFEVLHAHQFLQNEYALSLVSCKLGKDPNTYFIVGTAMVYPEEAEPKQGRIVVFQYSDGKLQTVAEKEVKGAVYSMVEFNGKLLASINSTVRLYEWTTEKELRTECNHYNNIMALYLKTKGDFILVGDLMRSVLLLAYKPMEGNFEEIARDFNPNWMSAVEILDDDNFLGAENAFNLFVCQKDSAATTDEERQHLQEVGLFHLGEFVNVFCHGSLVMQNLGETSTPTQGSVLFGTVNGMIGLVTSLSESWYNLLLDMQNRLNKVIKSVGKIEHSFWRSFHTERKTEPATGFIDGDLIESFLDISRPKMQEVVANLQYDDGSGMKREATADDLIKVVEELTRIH

On to `CNc1nc(-c2cnc3ccccc3c2)nc2c1CCN(C(=O)c1ccc(/C=C/c3ccc(C#CCN4CCN(C(=O)CCCC(=O)N[C@H](C(=O)N5C[C@H](O)C[C@H]5C(=O)NCc5ccc(-c6scnc6C)cc5)C(C)(C)C)CC4)cc3)cc1)C2` [Compound G2-3], for which the “AlphaLISA signal (PROTAC ternary complex signal intensity)” value (“AlphaLISA signal” for short) in experiment [1] is recorded as “+”.
Turning to `O=C1CCC(N2Cc3c(CCCN4CC(N5CCN(CC#Cc6ccc(/C=C/c7ccc(C(=O)N8CCc9cnc(-c%10cnc%11ccccc%11c%10)nc9C8)cc7)cc6)CC5)C4)cccc3C2=O)C(=O)N1` (stereo not shown) [Compound F2-5], the IC50 with MOLT-4 cells is greater than 200 µM.
On the same count and under the same terms, the value for `CNc1nc(-c2cnc3ccccc3c2)nc2c1CCN(C(=O)c1ccc(/C=C/c3ccc(C#CCN4CCN(CCCCCc5cccc6c5CN(C5CCC(=O)NC5=O)C6=O)CC4)cc3)cc1)C2` (stereo not shown) [Compound C1-4] was 1 to 10 µM.
For `CNc1nc(-c2cnc3ccccc3c2)nc2c1CCN(C(=O)c1ccc(/C=C/c3ccc(C#CCN4CCN(CCCCC(=O)N[C@H](C(=O)N5C[C@H](O)C[C@H]5C(=O)N[C@@H](C)c5ccc(-c6scnc6C)cc5)C(C)(C)C)CC4)cc3)cc1)C2` [Compound G3-1], the “AlphaLISA signal” value in experiment [1] was “+”.
As for `CNc1nc(-c2cnc3ccccc3c2)nc2c1CCN(C(=O)c1ccc(/C=C/c3ccc(C#CCN4CCN(C(=O)CCCCC(=O)N[C@H](C(=O)N5C[C@H](O)C[C@H]5C(=O)NCc5ccc(-c6scnc6C)cc5)C(C)(C)C)CC4)cc3)cc1)C2` [Compound G2-4], in experiment [1], the “AlphaLISA signal” value was “+”.
As for `O=C1CCC(N2Cc3cc(N4CCC(N5CCN(CC#Cc6ccc(OCC78CC(C(=O)N9CCc%10cnc(-c%11cnc%12ccccc%12c%11)nc%10C9)(C7)C8)cc6)CC5)CC4)ccc3C2=O)C(=O)N1` (stereo not shown) [Compound F2-10], the IC50 with MOLT-4 cells was in the range of 1 to 10 µM.
As for `C=Cc1cc(-c2nc3c(c(NC)n2)CCN(C(=O)c2ccc(COc4ccc(C#CCN5CCN(CCCCCCCCOc6cccc7c6C(=O)N(C6CCC(=O)NC6=O)C7=O)CC5)cc4)cc2)C3)cnc1C=C` (stereo not shown) [Compound C3-18], the “AlphaLISA signal” value in experiment [1] is “+++”.
Still for that read-out and setting: the value for `C=Cc1cc(-c2ncc3c(n2)CN(C(=O)c2ccc(COc4ccc(C#CCN5CCN(CCCCCOc6cccc7c6C(=O)N(C6CCC(=O)NC6=O)C7=O)CC5)cc4)cn2)CC3)cnc1C=C` (stereo not shown) [Compound C3-10] was “++”.
As for `CNc1nc(-c2cnc3ccccc3c2)nc2c1CCN(C(=O)c1ccc(/C=C/c3ccc(C#CCN4CCN(C5CCN(c6ccc7c(c6)CN(C6CCC(=O)NC6=O)C7=O)CC5)CC4)cc3)cc1)C2` (stereo not shown) [Compound F2-7], the IC50 in the experiment with MOLT-4 cells fell in the range of 1 to 10 µM.
Still for that read-out and setting: the value for `C=Cc1cc(-c2ncc3c(n2)CN(C(=O)c2ccc(/C=C/c4ccc(C#CCN5CCN(CCCCc6ccc7c(c6)CN(C6CCC(=O)NC6=O)C7=O)CC5)cc4)cc2)CC3)cnc1C=C` (stereo not shown) [Compound C1-3] was 1 to 10 µM.
Same read-out and setting: the same measure for `CNc1nc(-c2cnc3ccccc3c2)nc2c1CCN(C(=O)c1ccc(/C=C/c3ccc(C#CCN4CCN(CCCCC#Cc5cccc6c5CN(C5CCC(=O)NC5=O)C6=O)CC4)cc3)cc1)C2` (stereo not shown) [Compound D2-7]: 100 to 200 µM; for `C=Cc1cc(-c2ncc3c(n2)CN(C(=O)c2ccc(/C=C/c4ccc(C#CCN5CCN(CCCCCOc6cccc7c6C(=O)N(C6CCC(=O)NC6=O)C7=O)CC5)nc4)cc2)CC3)cnc1C=C` (stereo not shown) [Compound C3-8]: greater than 200 µM.
The same measure, in the same setting: the same measure for `O=C1CCC(N2Cc3cc(CN4CC(N5CCN(CC#Cc6ccc(/C=C/c7ccc(C(=O)N8CCc9cnc(-c%10cnc%11ccccc%11c%10)nc9C8)cc7)cc6)CC5)C4)ccc3C2=O)C(=O)N1` (stereo not shown) [Compound F2-2]: 50 to 100 µM.
Turning to `O=C1CCC(N2Cc3cc(C#CCCCN4CCN(CC#Cc5ccc(/C=C/c6ccc(C(=O)N7CCc8cnc(-c9cnc%10ccccc%10c9)nc8C7)cc6)cc5)CC4)ccc3C2=O)C(=O)N1` (stereo not shown) [Compound D2-3], the IC50 in the experiment on MOLT-4 cells was greater than 200 µM.
The same measure, in the same setting: the same measure for `O=C1CCC(N2C(=O)c3ccc(N4CCN(CC5CCN(CC#Cc6ccc(OCC78CC(C(=O)N9CCc%10cnc(-c%11cnc%12ccccc%12c%11)nc%10C9)(C7)C8)cc6)CC5)CC4)cc3C2=O)C(=O)N1` (stereo not shown) [Compound F1B-4]: 1 to 10 µM.
In the case of `C/C=c1/cc(-c2ncc3c(n2)CN(C(=O)c2ccc(/C=C/c4ccc(C#CCN5CCN(CCCCCCc6cccc7c6CN(C6CCC(=O)NC6=O)C7=O)CC5)cc4)cc2)CC3)cn/c1=C/C` (stereo not shown) [Compound C1-2], the IC50 in the experiment with MOLT-4 cells was greater than 200 µM.
Same read-out and setting: the same measure for `C=Cc1cc(-c2nc3c(c(NC)n2)CCN(C(=O)c2ccc(COc4ccc(C#CCN5CCN(CCCNc6cccc7c6C(=O)N(C6CCC(=O)NC6=O)C7=O)CC5)cc4)cc2)C3)cnc1C=C` (stereo not shown) [Compound C2-6]: 1 to 10 µM; for `O=C1CCC(N2Cc3c(CCCN4CCC(N5CCN(CC#Cc6ccc(/C=C/c7ccc(C(=O)N8CCc9cnc(-c%10cnc%11ccccc%11c%10)nc9C8)cc7)cc6)CC5)CC4)cccc3C2=O)C(=O)N1` (stereo not shown) [Compound F2-6]: 100 to 200 µM; for `O=C1CCC(c2cccc(C#CCCN3CCN(CC#Cc4ccc(OCC56CC(C(=O)N7CCc8cnc(-c9cnc%10ccccc%10c9)nc8C7)(C5)C6)cc4)CC3)c2)C(=O)N1` (stereo not shown) [Compound D2-16]: 1 to 10 µM.
With `O=C1CCC(N2Cc3c(CN4CC5(CC(N6CCN(CC#Cc7ccc(/C=C/c8ccc(C(=O)N9CCc%10cnc(-c%11cnc%12ccccc%12c%11)nc%10C9)cc8)cc7)CC6)C5)C4)cccc3C2=O)C(=O)N1` (stereo not shown) [Compound F3A-2], the IC50 in the experiment on MOLT-4 cells is 100 to 200 µM.
The same measure, in the same setting: the same measure for `O=C1CCC(N2C(=O)c3cccc(N4CC5(CC(N6CCN(CC#Cc7ccc(/C=C/c8ccc(C(=O)N9CCc%10cnc(-c%11cnc%12ccccc%12c%11)nc%10C9)cc8)cc7)CC6)C5)C4)c3C2=O)C(=O)N1` (stereo not shown) [Compound F3A-1]: greater than 200 µM; for `O=C1CCC(N2Cc3c(C#CCCCCN4CCN(CC#Cc5ccc(/C=C/c6ccc(C(=O)N7CCc8cnc(-c9cnc%10ccccc%10c9)nc8C7)cc6)cc5)CC4)cccc3C2=O)C(=O)N1` (stereo not shown) [Compound D2-5]: 100 to 200 µM.
On the same count and under the same terms, the value for `O=C1CCC(N2Cc3cc(C4CN(C5CCN(CC#Cc6ccc(OCC78CC(C(=O)N9CCc%10cnc(-c%11cnc%12ccccc%12c%11)nc%10C9)(C7)C8)cc6)CC5)C4)ccc3C2=O)C(=O)N1` (stereo not shown) [Compound F1A-5] was 1 to 10 µM.
`CNc1nc(-c2cnc3ccccc3c2)nc2c1CCN(C(=O)c1ccc(/C=C/c3ccc(C#CCN4CCN(C(=O)CCCCCC(=O)N[C@H](C(=O)N5C[C@H](O)C[C@H]5C(=O)NCc5ccc(-c6scnc6C)cc5)C(C)(C)C)CC4)cc3)cc1)C2` [Compound G1-3]: the IC50 with MOLT-4 cells was greater than 200 µM.
As for `O=C1CCC(N2Cc3c(cccc3N3CC4(CC(CN5CCN(CC#Cc6ccc(/C=C/c7ccc(C(=O)N8CCc9cnc(-c%10cnc%11ccccc%11c%10)nc9C8)cc7)cc6)CC5)C4)C3)C2=O)C(=O)N1` (stereo not shown) [Compound F3A-4], the IC50 in the experiment with MOLT-4 cells is 100 to 200 µM.
Consider `C=Cc1cc(-c2ncc3c(n2)CN(C(=O)c2ccc(COc4ccc(C#CCN5CCN(CCCCCOc6cccc7c6C(=O)N(C6CCC(=O)NC6=O)C7=O)CC5)cc4)nc2)CC3)cnc1C=C` (stereo not shown) [Compound C3-12], for which the IC50 with MOLT-4 cells is 50 to 100 µM.
For `O=C1CCC(N2Cc3cc(N4CCC(N5CCN(CC#Cc6ccc(/C=C/c7ccc(C(=O)N8CCc9cnc(-c%10cnc%11ccccc%11c%10)nc9C8)cc7)cc6)CC5)CC4)ccc3C2=O)C(=O)N1` (stereo not shown) [Compound F2-3], the IC50 in the experiment on MOLT-4 cells was 1 to 10 µM.
Consider `C=Cc1cc(-c2nc3c(c(NC)n2)CCN(C(=O)c2ccc(COc4ccc(C#CCN5CCN(CCCCCOc6cccc7c6C(=O)N(C6CCC(=O)NC6=O)C7=O)CC5)cc4)cn2)C3)cnc1C=C` (stereo not shown) [Compound C3-11], for which, in the experiment on MOLT-4 cells, the IC50 lay in the range of 100 to 200 µM.
